Data from US20170129903A1, “COMPOUNDS COMPRISING 1,1a,2,5a-TETRAHYDROSPIRO[INDOLE-3,2a-PYRROLE]-2,5a-DIONE SYSTEM AS INHIBITORS P53-MDM2 PROTEIN-PROTEIN INTERACTION” (ADAMED SP. Z O.O., priority 2014, published 2017).

Tests used:
[1] = tested on: SJSA-1 osteosarcoma cell line; assay: MTT cell viability assay; format: cell-based; details: Homo sapiens, SJSA-1, 72 h, 72 h incubation, average of 2-5 experiments
Procedure: The effect of the invented p53-Mdm2 inhibitors on cell viability has been assessed using MTT assay. It is a colorimetric assay that measures conversion of tetrazolium ring of the soluble yellow dye (MTT) into insoluble purple formazan. This process is catalysed solely in mitochondrial dehydrogenases of living cells.
Cells were seeded on 96-well plates and then treated with successive dilutions of tested compounds. After 72 h incubation, MTT was added to the final concentration 0.5 mg/ml. The cells were further incubated for the next 4 h. Then the solution was drained and the remaining formazan crystals were dissolved in 100 μl DMSO. […] All the MTT experiments were independently repeated 2-5 times. Dose-dependent binding curves and IC50 values were calculated using GraphPad Prism 5.

[2] = target: T1, p53-Mdm2 interaction (N-terminal domain of Mdm2 protein, amino acids 1-111) (Homo sapiens, UniProt Q00987); assay: Fluorescence polarization (FP) binding assay of p53-Mdm2 interaction; details: FP assay, 130 nM Mdm2, FAM-labelled p53 peptide; Ki transformed from IC50 using Kenakin equation
T1 construct: N-terminal domain of Mdm2 protein (amino acids 1-111)
T1 sequence (Q00987 1-111): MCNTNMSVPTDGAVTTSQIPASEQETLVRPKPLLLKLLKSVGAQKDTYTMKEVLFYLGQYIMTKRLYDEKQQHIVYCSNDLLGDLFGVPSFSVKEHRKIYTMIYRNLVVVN
Procedure: The inhibition of p53-Mdm2 interaction was measured using a fluorescence polarization (FP) binding assay. FP measures the rotational movement of molecules in a homogenous suspension. For this assay, N-terminal domain of Mdm2 protein (amino acids 1-111) is combined with a fluorescein-labelled (FAM) peptide derived from p53 trans-activation domain. Upon excitation of the fluorescent ligand with linearly polarized light, […]. If the peptide is bound by Mdm2, rotation will slow down and the perpendicular component will decrease. Disruption of the formation of the peptide-Mdm2 complex due to an inhibitor molecule binding to the p53 binding site of Mdm2 results in faster rotation of the peptide.
Fluorescence polarization experiments were read on Tecan Infinite M1000 reader with the 470 nm excitation and 520 nm emission filters for fluorescein. The fluorescence polarization was measured in black 96-well plates (Corning, CLS3991) in room temperature. Purity of Mdm2 was controlled at >95%. Reaction buffer was optimized by adding 5 mM DTT and 0.1% zwitterionic detergent CHAPS to reduce effect of nonspecific interactions.
The test was performed by combining successive dilution of compounds diluted in dimethyl sulfoxide (DMSO, 5% final concentration) with 130 nM Mdm2 in reaction buffer (PBS, 0.1% CHAPS, 5 mM DTT (dithiothreitol)). After 15 minutes of incubation in room temperature […] FAM-labelled peptide was added. Final reading was performed after 90 minutes of incubation. Dose-dependent binding curves and IC50 values were calculated using GraphPad Prism5 and next transformed to Ki values using Kenakin equation.

IC50 [1]	Ki [2]	Structure (SMILES)
1.07 µM	4.3 nM	COc1ccccc1-n1nc2c(c1C(C)C)C1(C(=O)Nc3cc(Cl)ccc31)N(c1cccc(Cl)c1)C2=O (stereo not shown) [Compound 27, 6-chloro-5′-(3-chlorophenyl)-2′-(2-methoxyphenyl)-3′-(propan-2-yl)-1,2,5′,6′-tetrahydro-2′H-spiro[indole-3,4′-pyrrolo [3,4-c]pyrazole]-2,6′-dione]
0.16 µM	3.1 nM	COc1ccc(-n2cc3c(c2C(C)C)C2(C(=O)Nc4cc(Cl)ccc42)N(c2cc(Cl)cnc2C)C3=O)c(OC)c1 (stereo not shown) [Compound 104, 6-chloro-2′-(5-chloro-2-methylpyridin-3-yl)-5′-(2,4-dimethoxyphenyl)-6′-(propan-2-yl)-1,2,3′,5′-tetrahydro-2′H-spiro[indole-3,1′-pyrrolo[3,4-c]pyrrole]-2,3′-dione]
0.65 µM	6.7 nM	COc1ccccc1-n1cc2c(c1C(C)C)C1(C(=O)Nc3cc(Cl)ccc31)N(c1cc(Cl)ccc1C(N)=O)C2=O (stereo not shown) [Compound 99, 4-chloro-2-[6-chloro-5′-(2-methoxy-phenyl)-2,3′-dioxo-6′-(propan-2-yl)-1,2,3′,5′-tetrahydro-2′H-spiro[indole-3,1′-pyrrolo[3,4-c]pyrrole]-2′-yl]benzamide]
2.2 µM	4.5 nM	CO[C@H]1CNCC[C@H]1n1cc2c(c1C(C)C)[C@@]1(C(=O)Nc3cc(Cl)ccc31)N(c1cc(Cl)ccc1C)C2=O [Compound 103, (3S)-6-chloro-2′-(5-chloro-2-methyl-phenyl)-5′-[(3S,4R)-3-methoxy-piperidin-4-yl]-6′-(propan-2-yl)-1,2,3′,5′-tetrahydro-2′H-spiro[indole-3,1′-pyrrolo [3,4-c]pyrrole]-2,3′-dione]
6.95 µM	120 nM	COc1ccc(Cl)cc1N1C(=O)c2n[nH]c(C3(C)CC3)c2C12C(=O)Nc1cc(Cl)ccc12 (stereo not shown) [Compound 22, 6-chloro-5′-(5-chloro-2-methoxyphenyl)-3′-(1-methylcyclopropyl)-1,2,5′,6′-tetrahydro-2′H-spiro[indole-3,4′-pyrrolo [3,4-c]pyrazole]-2,6′-dione]
12.4 µM	86 nM	CCc1ccccc1-n1nc2c(c1C(C)C)C1(C(=O)Nc3cc(Cl)ccc31)N(c1cc(Cl)ccc1C)C2=O (stereo not shown) [Compound 67, 6-chloro-5′-(5-chloro-2-methylphenyl)-2′-(2-ethylphenyl)-3′-(propan-2-yl)-1,2,5′,6′-tetrahydro-2′H-spiro[indole-3,4′-pyrrolo [3,4-c]pyrazole]-2,6′-dione]
0.53 µM	4.7 nM	COc1ccccc1-n1nc2c(c1C(C)C)C1(C(=O)Nc3cc(Cl)ccc31)N(c1cc(Cl)ccc1C)C2=O (stereo not shown) [Compound 31, 6-chloro-5′-(5-chloro-2-methylphenyl)-2′-(2-methoxyphenyl)-3′-(propan-2-yl)-1,2,5′,6′-tetrahydro-2′H-spiro[indole-3,4′-pyrrolo[3,4-c]pyrazole]-2,6′-dione]
32 µM	1460 nM	CC1(c2c3c(nn2CC2CCCN2)C(=O)N(c2cccc(Cl)c2)C32C(=O)Nc3cc(Cl)ccc32)CC1 (stereo not shown) [Compound 28, 6-chloro-5′-(3-chlorophenyl)-3′-(1-methylcyclopropyl)-2′-(pyrrolidin-2-ylmethyl)-1,2,5′,6′-tetrahydro-2′H-spiro [indole-3,4′-pyrrolo[3,4-c]pyrazole]-2,6′-dione]
18.1 µM	281 nM	O=C1C(O)=C(C2CCCCC2)C2(C(=O)Nc3cc(Cl)ccc32)N1c1cccc(Cl)c1 (stereo not shown) [Compound 44, 6-chloro-1′-(3-chlorophenyl)-3′-cyclohexyl-4′-hydroxy-1,1′,2,5′-tetrahydrospiro[indole-3,2′-pyrrole]-2,5′-dione]
0.46 µM	4.3 nM	COc1ccccc1-n1nc2c(c1C(C)C)C1(C(=O)Nc3cc(Cl)ccc31)N(c1cc(Cl)cnc1C)C2=O (stereo not shown) [Compound 71, 6-chloro-5′-(5-chloro-2-methylpyridin-3-yl)-2′-(2-methoxyphenyl)-3′-(propan-2-yl)-1,2,5′,6′-tetrahydro-2′H-spiro[indole-3,4′-pyrrolo[3,4-c]pyrazole]-2,6′-dione]
1.02 µM	5.7 nM	COC(=O)c1ccc(OC)c(-n2nc3c(c2C(C)C)C2(C(=O)Nc4cc(Cl)ccc42)N(c2cc(Cl)ccc2O)C3=O)c1 (stereo not shown) [Compound 79, methyl 3-[6-chloro-5′-(5-chloro-2-hydroxyphenyl)-2,6′-dioxo-3′-(propan-2-yl)-1,2,5′,6′-tetrahydro-2′H-spiro[indole-3,4′-pyrrolo[3,4-c]pyrazole]-2′-yl]-4-methoxybenzoate]
1.21 µM	3.5 nM	COc1ccc(C(=O)NCCO)cc1-n1cc2c(c1C(C)C)C1(C(=O)Nc3cc(Cl)ccc31)N(c1cc(Cl)ccc1C)C2=O (stereo not shown) [Compound 100, 3-[6-chloro-2′-(5-chloro-2-methylphenyl)-2,3′-dioxo-6′-(propan-2-yl)-1,2,3′,5′-tetrahydro-2′H-spiro[indole-3,1′-pyrrolo [3,4-c]pyrrole]-5′-yl]-N-(2-hydroxyethyl)-4-methoxybenzamide]
28 µM	205 nM	CCOC(=O)CNC1=C(c2ccccc2)C2(C(=O)Nc3cc(Cl)ccc32)N(c2cccc(Cl)c2)C1=O (stereo not shown) [Compound 48, ethyl 2-{[6-chloro-1′-(3-chlorophenyl)-2,5′-dioxo-3′-phenyl-1,1′,2,5′-tetrahydrospiro[indole-3,2′-pyrrole]-4′-yl]amino}acetate]
48.8 µM	358 nM	CN(C)C(=O)C1CCCC1Cn1nc2c(c1C1(C)CC1)C1(C(=O)Nc3cc(Cl)ccc31)N(c1cccc(Cl)c1)C2=O (stereo not shown) [Compound 29, 2-[6-chloro-5′-(3-chlorophenyl)-3′-(1-methylcyclopropyl)-2,6′-dioxo-1,2,5′,6′-tetrahydro-2′H-spiro[indole-3,4′-pyrrolo [3,4-c]pyrazole]-2′-ylmethyl]-N,N-dimethylcyclopentane-1-carboxamide]
6.35 µM	46 nM	Cc1ccc(Cl)cc1N1C(=O)c2nn(-c3ccccc3C)c(C(C)C)c2C12C(=O)Nc1cc(Cl)ccc12 (stereo not shown) [Compound 68, 6-chloro-5′-(5-chloro-2-methylphenyl)-2′-(2-methylphenyl)-3′-(propan-2-yl)-1,2,5′,6′-tetrahydro-2′H-spiro[indole-3,4′-pyrrolo[3,4-c]pyrazole]-2,6′-dione]
43.8 µM	650 nM	O=C1C(O)=C(c2ccccc2)C2(C(=O)Nc3cc(Cl)c(Cl)cc32)N1c1cccc(Cl)c1 (stereo not shown) [Compound 43, 5,6-dichloro-1′-(3-chlorophenyl)-4′-hydroxy-3′-phenyl-1,1′,2,5′-tetrahydrospiro [indole-3,2′-pyrrole]-2,5′-dione]
6.19 µM	33 nM	COc1ccccc1-n1cc2c(c1C(C)C)C1(C(=O)Nc3cc(Cl)ccc31)N(c1cc(Cl)ccc1[N+](=O)[O-])C2=O (stereo not shown) [Compound 90, 6-chloro-2′-(5-chloro-2-nitrophenyl)-5′-(2-methoxyphenyl)-6′-(propan-2-yl)-1,2,3′,5′-tetrahydro-2′H-spiro[indole-3,1′-pyrrolo [3,4-c]pyrrole]-2,3′-dione]
9.98 µM	4.3 nM	COc1ccccc1-n1cc2c(c1C(C)C)C1(C(=O)Nc3cc(Cl)ccc31)N(c1cc(Cl)ccc1C(=O)O)C2=O (stereo not shown) [Compound 105, 4-chloro-2-[6-chloro-5′-(2-methoxyphenyl)-2,3′-dioxo-6′-(propan-2-yl)-1,2,3′,5′-tetrahydro-2′H-spiro[indole-3,1′-pyrrolo[3,4-c]pyrrole]-2′-yl]benzoic acid]
32.3 µM	96 nM	COc1ccc(Cl)cc1N1C(=O)C(O)=C(c2ccccc2)C12C(=O)Nc1cc(Cl)ccc12 (stereo not shown) [Compound 46, 6-chloro-1′-(5-chloro-2-methoxyphenyl)-4′-hydroxy-3′-phenyl-1,1′,2,5′-tetrahydrospiro[indole-3,2′-pyrrole]-2,5′-dione]
0.89 µM	5.6 nM	COc1ccccc1-n1nc2c(c1C(C)C)C1(C(=O)Nc3cc(Cl)ccc31)N(c1cncc(Cl)c1)C2=O (stereo not shown) [Compound 72, 6-chloro-5′-(5-chloropyridin-3-yl)-2′-(2-methoxyphenyl)-3′-(propan-2-yl)-1,2,5′,6′-tetrahydro-2′H-spiro[indole-3,4′-pyrrolo [3,4-c]pyrazole]-2,6′-dione]
